Each block holds one molecule with its values, some of them ahead of it. Numbered stars: 1 amine (or outer) side, 2 acyl side, 3 side chain; on linkers, the order of the positions; unused ones are H or OH. Bridge positions count the residues as written; N and C are the ends. Square brackets hold non-standard residues; d marks the D form. Peptide text beside a SMILES is read from it. Trp(1-Me) = Cn1cc(C[C@H](N)C(=O)O)c2ccccc21; Abu(4-yl) = O=C([C@H](CC[*:3])N[*:1])[*:2]; NMeI = CC[C@H](C)[C@H](NC)C(=O)O; Sar = CNCC(=O)O
Assays:
[1] = test system: classical pathway of complement activation; experiment: ELISA-based complement inhibition assay (antigen-antibody complex initiated, C3b deposition); assay type: biochemical; conditions: for relative activity (rank order) in inhibition of antigen-antibody complex-initiated complement activation: FIG. 4, representative result; for IC50: read-out: IC50, concentration at which the peptides inhibit complement activation by 50%, plasma 1:80 in VB++, average of five datasets
Method: An ELISA-based assay was performed to assess the complement inhibitory ability of the compstatin analogs. Briefly, an antigen-antibody complex was used as an initiator of the classical pathway of complement activation. […] Incubation followed to allow complement activation. The deposition of C3b on the plate was measured by a polyclonal anti-C3 antibody. The percentage of inhibition was plotted against the compstatin concentration and fitted to a logistic dose-response function using OriginPro 8.

[2] = target: C3b (Homo sapiens, UniProt P01024); experiment: Biacore SPR kinetic analysis on captured biotinylated C3b; conditions: 1:1 binding model; average of multiple datasets
Method: The interaction of the compstatin analogs with C3b was characterized using a Biacore 3000 instrument (GE Healthcare, Corp., Piscataway, N.J.). The running buffer was PBS, pH 7.4 (10 mM sodium phosphate, 150 mM NaCl) with 0.005% Tween-20. Biotinylated C3b was captured site-specifically on a streptravidin chip at about 3000, 4000 and 5000 RU density; an untreated flowcell was used as a reference surface. For kinetic analysis, sets of five samples of increasing concentrations were injected over the chip surface one after the other in a single cycle. […] The data analysis was performed using BiaEvaluation. The processed signals were fitted to a 1:1 binding model and kinetic constants were extracted. […] 2 min injections at 30 ul/min were performed, after which a 3 min dissociation was monitored. […] Data analysis followed using Scrubber (BioLogic Software, Campbell, Australia). The processed signals were globally fitted to a Langmuir 1:1 binding isotherm and kinetic constants were extracted.

[3] = target: Biotinylated C3b (UniProt P01024); experiment: SPR (Biacore 3000), single-cycle kinetics, peptide over biotinylated C3b captured on streptavidin chip, 1:1 model
[4] = target: T1, Complement C3 (in plasma) (UniProt P01024 23-1663, limits assumed); experiment: cell-based or functional assay
[5] = target: T1, Complement C3 (in plasma); experiment: cell-based or functional assay; remark: listed apart in the source

T1 sequence (P01024 23-1663 limits assumed): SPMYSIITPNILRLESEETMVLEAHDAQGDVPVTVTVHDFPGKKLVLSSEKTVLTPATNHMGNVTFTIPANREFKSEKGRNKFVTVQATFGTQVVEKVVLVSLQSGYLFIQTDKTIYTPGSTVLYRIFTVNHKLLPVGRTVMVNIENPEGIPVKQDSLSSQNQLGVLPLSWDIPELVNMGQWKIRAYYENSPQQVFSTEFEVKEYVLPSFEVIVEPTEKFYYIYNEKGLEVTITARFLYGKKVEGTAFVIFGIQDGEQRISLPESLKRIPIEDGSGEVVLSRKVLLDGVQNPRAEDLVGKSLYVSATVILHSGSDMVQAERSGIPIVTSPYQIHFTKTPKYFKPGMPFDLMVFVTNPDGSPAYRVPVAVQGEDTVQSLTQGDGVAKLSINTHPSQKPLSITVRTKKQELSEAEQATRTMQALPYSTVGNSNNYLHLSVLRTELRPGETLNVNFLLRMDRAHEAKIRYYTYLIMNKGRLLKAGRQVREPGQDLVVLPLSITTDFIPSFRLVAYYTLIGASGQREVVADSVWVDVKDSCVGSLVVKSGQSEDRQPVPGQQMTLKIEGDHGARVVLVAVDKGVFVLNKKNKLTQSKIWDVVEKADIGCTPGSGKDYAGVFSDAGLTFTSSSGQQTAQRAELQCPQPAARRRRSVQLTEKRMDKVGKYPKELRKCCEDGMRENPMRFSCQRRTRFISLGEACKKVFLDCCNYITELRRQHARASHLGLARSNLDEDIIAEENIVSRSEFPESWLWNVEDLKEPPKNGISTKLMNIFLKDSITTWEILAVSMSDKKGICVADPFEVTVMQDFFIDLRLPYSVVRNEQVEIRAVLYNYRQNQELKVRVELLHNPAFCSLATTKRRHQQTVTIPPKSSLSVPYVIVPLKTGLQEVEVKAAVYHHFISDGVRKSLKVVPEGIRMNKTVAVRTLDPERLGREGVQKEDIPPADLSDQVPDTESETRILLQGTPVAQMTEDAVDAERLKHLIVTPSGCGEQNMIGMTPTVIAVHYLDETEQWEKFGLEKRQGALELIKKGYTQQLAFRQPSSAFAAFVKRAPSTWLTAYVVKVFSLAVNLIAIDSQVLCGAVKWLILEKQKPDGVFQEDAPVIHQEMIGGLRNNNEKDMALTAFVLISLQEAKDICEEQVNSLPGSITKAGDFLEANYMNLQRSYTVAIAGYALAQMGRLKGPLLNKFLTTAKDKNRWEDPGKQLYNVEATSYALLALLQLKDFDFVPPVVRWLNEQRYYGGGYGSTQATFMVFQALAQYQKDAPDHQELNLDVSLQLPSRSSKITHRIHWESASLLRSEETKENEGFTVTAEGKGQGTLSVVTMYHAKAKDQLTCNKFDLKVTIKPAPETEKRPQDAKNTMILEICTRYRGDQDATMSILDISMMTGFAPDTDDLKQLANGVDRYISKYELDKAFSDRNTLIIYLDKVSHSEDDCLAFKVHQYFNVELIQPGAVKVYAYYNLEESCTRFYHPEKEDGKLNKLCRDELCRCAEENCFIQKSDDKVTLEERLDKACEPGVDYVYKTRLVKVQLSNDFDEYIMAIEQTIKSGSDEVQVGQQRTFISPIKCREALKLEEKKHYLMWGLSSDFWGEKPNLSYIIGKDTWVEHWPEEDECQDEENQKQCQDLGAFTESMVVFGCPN
C3b, sequence (P01024 23-667 limits assumed): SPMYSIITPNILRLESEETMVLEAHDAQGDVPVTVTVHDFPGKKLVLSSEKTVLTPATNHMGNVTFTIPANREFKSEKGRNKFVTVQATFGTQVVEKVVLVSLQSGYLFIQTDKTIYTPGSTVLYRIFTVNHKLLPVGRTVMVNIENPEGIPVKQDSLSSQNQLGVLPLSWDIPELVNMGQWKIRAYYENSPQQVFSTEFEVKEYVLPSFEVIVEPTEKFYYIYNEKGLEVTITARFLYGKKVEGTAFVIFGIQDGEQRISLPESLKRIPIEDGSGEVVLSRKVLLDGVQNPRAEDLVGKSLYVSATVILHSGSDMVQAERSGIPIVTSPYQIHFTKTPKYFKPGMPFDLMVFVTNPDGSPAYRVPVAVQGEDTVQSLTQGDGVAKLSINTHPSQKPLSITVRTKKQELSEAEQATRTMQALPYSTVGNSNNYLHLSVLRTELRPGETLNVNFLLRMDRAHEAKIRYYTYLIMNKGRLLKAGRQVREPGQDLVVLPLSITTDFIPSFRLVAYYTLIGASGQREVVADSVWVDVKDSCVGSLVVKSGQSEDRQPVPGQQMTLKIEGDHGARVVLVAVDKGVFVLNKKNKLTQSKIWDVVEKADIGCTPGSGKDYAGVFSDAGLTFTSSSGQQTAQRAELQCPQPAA
C3b, sequence (P01024 749-1663 partner limits assumed): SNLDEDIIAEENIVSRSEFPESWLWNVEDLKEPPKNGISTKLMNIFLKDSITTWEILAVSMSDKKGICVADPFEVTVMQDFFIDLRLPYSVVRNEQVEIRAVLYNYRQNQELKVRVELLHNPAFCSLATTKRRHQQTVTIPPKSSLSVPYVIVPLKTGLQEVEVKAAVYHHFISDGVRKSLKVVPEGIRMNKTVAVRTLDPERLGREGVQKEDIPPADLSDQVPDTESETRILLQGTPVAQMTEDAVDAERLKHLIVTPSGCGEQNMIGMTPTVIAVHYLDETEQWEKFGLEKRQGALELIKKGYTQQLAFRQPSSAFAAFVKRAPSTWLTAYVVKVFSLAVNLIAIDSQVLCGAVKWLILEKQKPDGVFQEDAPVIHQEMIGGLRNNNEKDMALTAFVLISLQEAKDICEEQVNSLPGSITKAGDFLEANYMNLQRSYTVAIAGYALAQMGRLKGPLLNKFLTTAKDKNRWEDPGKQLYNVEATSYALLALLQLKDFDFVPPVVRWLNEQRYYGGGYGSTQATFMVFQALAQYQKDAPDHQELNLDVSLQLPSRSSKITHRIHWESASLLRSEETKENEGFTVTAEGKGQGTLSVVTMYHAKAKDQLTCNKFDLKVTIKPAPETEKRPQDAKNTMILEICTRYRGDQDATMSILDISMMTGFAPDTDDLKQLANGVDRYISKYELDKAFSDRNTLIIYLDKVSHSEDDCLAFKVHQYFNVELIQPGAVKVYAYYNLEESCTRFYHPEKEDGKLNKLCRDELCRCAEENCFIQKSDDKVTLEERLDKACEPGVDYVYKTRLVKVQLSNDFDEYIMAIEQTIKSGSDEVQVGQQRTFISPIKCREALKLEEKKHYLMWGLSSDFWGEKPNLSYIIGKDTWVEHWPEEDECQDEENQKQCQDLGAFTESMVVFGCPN

Molecule: CC[C@H](C)[C@H](NC(C)=O)C(=O)N[C@H]1CSSC[C@@H](C(=O)N(C)[C@H](C(N)=O)[C@@H](C)CC)NC(=O)[C@H](CCCNC(=N)N)NC(=O)[C@H](Cc2c[nH]cn2)NC(=O)[C@H](C)NC(=O)CN(C)C(=O)[C@H](Cc2c[nH]c3ccccc23)NC(=O)[C@H](CC(=O)O)NC(=O)[C@H](CCC(N)=O)NC(=O)[C@H](Cc2cn(C)c3ccccc23)NC(=O)[C@H](C(C)C)NC1=O [CP20, AC-Ic[CV(^1-MeW)QDW(^N-MeG)AHRC](^N-MeI)-NH2, reference compound]
relative activity (rank order) in inhibition of antigen-antibody complex-initiated complement activation [1]: CP20>delta-Cth CP20>4W9A>delta-Cth>gamma-Cth
IC50 [1]: 130 ± 50 nM
kd [2]: 0.4 ± 0.1 10^−2 s^−1

Molecule: CC[C@H](C)[C@H](NC(C)=O)C(=O)N[C@H]1CCSC[C@@H](C(=O)N[C@H](C(N)=O)[C@@H](C)O)NC(=O)[C@H](CCCNC(=N)N)NC(=O)[C@H](Cc2c[nH]cn2)NC(=O)[C@H](C)NC(=O)CNC(=O)[C@H](Cc2c[nH]c3ccccc23)NC(=O)[C@H](CC(=O)O)NC(=O)[C@H](CCC(N)=O)NC(=O)[C@H](Cc2c[nH]c3ccccc23)NC(=O)[C@H](C(C)C)NC1=O [Gamma-Cth] (Ac-I[Abu(4-yl)]VWQDWGAHRCT-NH2; thioether 2-12)
kd [2]: 46.8 ± 5.7 10^−2 s^−1

B1: CP20 compstatin analog (disulfide control) (peptide)
peptide: Ac-ICV[Trp(1-Me)]QDW[Sar]AHRC[NMeI]-NH2
modifications: disulfide 2-12
SMILES: CC[C@H](C)[C@H](NC(C)=O)C(=O)N[C@H]1CSSC[C@@H](C(=O)N(C)[C@H](C(N)=O)[C@@H](C)CC)NC(=O)[C@H](CCCNC(=N)N)NC(=O)[C@H](Cc2c[nH]cn2)NC(=O)[C@H](C)NC(=O)CN(C)C(=O)[C@H](Cc2c[nH]c3ccccc23)NC(=O)[C@H](CC(=O)O)NC(=O)[C@H](CCC(N)=O)NC(=O)[C@H](Cc2cn(C)c3ccccc23)NC(=O)[C@H](C(C)C)NC1=O
IC50, inhibition of antigen-antibody complex-initiated (classical pathway) complement activation, C3b deposition ELISA [4]: 0.13 µM
IC50 (read off the curve) [5]: ~0.1 µM

B2: CP20 delta-Cth (delta-cystathionine CP20 compstatin analog) (peptide)
peptide: ICVWQDWGAHRCI
modifications: N-terminal acetyl (Ac-Ile1); 1-methyl-Trp at position 4; N-methyl-Gly at position 8; N-methyl-Ile at position 13; C-terminal amide (-NH2); C2-C12 thioether bond forming delta-cystathionine
IC50, inhibition of antigen-antibody complex-initiated (classical pathway) complement activation, C3b deposition ELISA [4]: 0.26 µM
IC50 (read off the curve) [5]: ~0.3 µM

Second part, led by results:

IC50 [1]: 260 ± 90 nM
kd [2]: 1.5 ± 0.4 10^−2 s^−1
Molecule: CC[C@H](C)[C@H](NC(C)=O)C(=O)N[C@H]1CSCC[C@@H](C(=O)N(C)[C@H](C(N)=O)[C@@H](C)CC)NC(=O)[C@H](CCCNC(=N)N)NC(=O)[C@H](Cc2c[nH]cn2)NC(=O)[C@H](C)NC(=O)CN(C)C(=O)[C@H](Cc2c[nH]c3ccccc23)NC(=O)[C@H](CC(=O)O)NC(=O)[C@H](CCC(N)=O)NC(=O)[C@H](Cc2cn(C)c3ccccc23)NC(=O)[C@H](C(C)C)NC1=O [Delta-Cth CP20, Ac-Ic[CV(^1-MeW)QDW(^N-MeG)AHRC](^N-MeI)-NH2] (Ac-ICV[Trp(1-Me)]QDW[Sar]AHR[Abu(4-yl)][NMeI]-NH2; thioether 2-12)
relative activity (rank order) in inhibition of antigen-antibody complex-initiated complement activation [1]: CP20>delta-Cth CP20>4W9A>delta-Cth>gamma-Cth

kd [2]: 11 ± 1.9 10^−2 s^−1
Molecule: CC[C@H](C)[C@H](NC(C)=O)C(=O)N[C@H]1CSCC[C@@H](C(=O)N[C@H](C(N)=O)[C@@H](C)O)NC(=O)[C@H](CCCNC(=N)N)NC(=O)[C@H](Cc2c[nH]cn2)NC(=O)[C@H](C)NC(=O)CNC(=O)[C@H](Cc2c[nH]c3ccccc23)NC(=O)[C@H](CC(=O)O)NC(=O)[C@H](CCC(N)=O)NC(=O)[C@H](Cc2c[nH]c3ccccc23)NC(=O)[C@H](C(C)C)NC1=O [Delta-Cth] (Ac-ICVWQDWGAHR[Abu(4-yl)]T-NH2; thioether 2-12)

Kd [3]: 2.4 nM
koff [3]: 0.004 s⁻¹
kon [3]: 1.86e+06 M⁻¹ s⁻¹
Molecule: CP20 compstatin analog (disulfide control) (peptide)

— patent publication US20140113874A1, “Modified Compstatin With Improved Stability And Binding Properties” (THE TRUSTEES OF THE UNIVERSITY OF PENNSYLVANIA, priority 2010, published 2014)
